The values below are quoted from earlier work in US20240023548A1, “TAU-FLUVALINATE COMPOSITIONS” (Adama Makhteshim Ltd., priority 2020, published 2024).

SMILES strings stand for the structures.

`CC(C)[C@@H](Nc1ccc(C(F)(F)F)cc1Cl)C(=O)OC(C#N)c1cccc(Oc2ccccc2)c1` (some centres unmarked) [Tau-fluvalinate, tau-fluvalinate]: the “Solubility in organic solvents” value (organic solvents) is “soluble in organic solvents”. The Solubility in water entry (water) was “low solubility in water”.
